Reference: PubChem BioAssay AID330 (DTP/NCI, 2004)
Where “and” joins values, the source holds several entries; their conditions need not be identical. Identical values can stand only once. Toxic doses and inconclusive results are not listed.

Tested on: P388 leukemia ip, CD2F1 mice, survival T/C
Experiment: NCI In Vivo Anticancer Drug Screen. Data for tumor model P388 Leukemia (intraperitoneal) in CD2F1 (CDF1) mice
Settings: endpoint: median survival time, higher = longer survival
Outline: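 Mice carrying the transplanted tumor received test compound or vehicle. Survival was recorded in each group, and the value is the treated-group measurement divided by that of the vehicle-treated control group.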

[1] = dose: 25.0 mg/kg/injection, schedule: Q01DX009 (ip), vehicle: saline with Tween-80
[2] = dose: 50.0 mg/kg/injection, schedule: Q01DX009 (ip), vehicle: saline with Tween-80
[3] = dose: 100.0 mg/kg/injection, schedule: Q01DX009 (ip), vehicle: saline with Tween-80
[4] = dose: 25.0 mg/kg/injection, schedule: Q01DX009 (ip), vehicle: saline
[5] = dose: 200.0 mg/kg/injection, schedule: Q01DX009 (ip), vehicle: saline with Tween-80
[6] = dose: 400.0 mg/kg/injection, schedule: Q01DX009 (ip), vehicle: saline with Tween-80
[7] = dose: 60.0 mg/kg/injection, schedule: Q01DX005 (ip), vehicle: saline with Tween-80
[8] = dose: 120.0 mg/kg/injection, schedule: Q01DX005 (ip), vehicle: saline with Tween-80
[9] = dose: 240.0 mg/kg/injection, schedule: Q01DX005 (ip), vehicle: saline with Tween-80
[10] = dose: 50.0 mg/kg/injection, schedule: Q01DX005 (ip), vehicle: saline with Tween-80
[11] = dose: 100.0 mg/kg/injection, schedule: Q01DX005 (ip), vehicle: saline with Tween-80
[12] = dose: 200.0 mg/kg/injection, schedule: Q01DX005 (ip), vehicle: saline with Tween-80
[13] = dose: 50.0 mg/kg/injection, schedule: Q01DX009 (ip), vehicle: Klucel (hydroxypropylcellulose) (HPC)
[14] = dose: 100.0 mg/kg/injection, schedule: Q01DX009 (ip), vehicle: Klucel (hydroxypropylcellulose) (HPC)
[15] = dose: 200.0 mg/kg/injection, schedule: Q01DX009 (ip), vehicle: Klucel (hydroxypropylcellulose) (HPC)
[16] = dose: 12.5 mg/kg/injection, schedule: Q01DX009 (ip), vehicle: saline with Tween-80
[17] = dose: 50.0 mg/kg/injection, schedule: Q01DX005 (ip), vehicle: Klucel (hydroxypropylcellulose) (HPC)
[18] = dose: 100.0 mg/kg/injection, schedule: Q01DX005 (ip), vehicle: Klucel (hydroxypropylcellulose) (HPC)
[19] = dose: 200.0 mg/kg/injection, schedule: Q01DX005 (ip), vehicle: Klucel (hydroxypropylcellulose) (HPC)
[20] = dose: 25.0 mg/kg/injection, schedule: Q01DX005 (ip), vehicle: Klucel (hydroxypropylcellulose) (HPC)

## CN(C)c1ccc2nc3ccc(N)cc3[n+](-c3ccccc3)c2c1
dose: 3.12 mg/kg/injection, schedule: Q01DX005 (ip), vehicle: saline
  T/C: 106 % of control
dose: 6.25 mg/kg/injection, schedule: Q01DX005 (ip), vehicle: saline
  T/C: 106 % of control
dose: 12.5 mg/kg/injection, schedule: Q01DX005 (ip), vehicle: saline
  T/C: 112 % of control

## COc1ccc(-c2coc3cc(OC4OC(CO)C(O)C(O)C4O)cc(O)c3c2=O)cc1 (stereo not given)
[1]
  T/C: 98 % of control
[2]
  T/C: 92 % of control
[3]
  T/C: 94 % of control

## CCN(CC)c1ccc(N=Nc2ccc(Br)cn2)c(O)c1
dose: 60.0 mg/kg/injection, schedule: Q01DX005 (ip), vehicle: Klucel + Tween-80
  T/C: 104 % of control
dose: 120.0 mg/kg/injection, schedule: Q01DX005 (ip), vehicle: Klucel + Tween-80
  T/C: 95 % of control
dose: 240.0 mg/kg/injection, schedule: Q01DX005 (ip), vehicle: Klucel + Tween-80
  T/C: 92 % of control

## CCN(CC)CCCCCCCNc1cc(OC)cc2c(C)ccnc12
dose: 6.25 mg/kg/injection, schedule: Q01DX009 (ip), vehicle: saline
  T/C: 90 % of control
dose: 12.5 mg/kg/injection, schedule: Q01DX009 (ip), vehicle: saline
  T/C: 93 % of control
[4]
  T/C: 99 % of control

## COc1c(CCl)c2c(c(OC)c1OC)COC2=O
[2]
  T/C: 100 % of control
[3]
  T/C: 90 % of control
[5]
  T/C: 116 % of control

## CCOC(=O)C1=C(C)N(Cc2ccccc2)C(C)=C(C(=O)OCC)C1(C)C
[3]
  T/C: 104 % of control
[5]
  T/C: 118 % of control
[6]
  T/C: 118 % of control

## CCOC(=O)C1(N=O)CCCCC1=O (stereo not given)
dose: 100.0 mg/kg/injection, schedule: Q01DX001 (ip), vehicle: alcohol
  T/C: 103 % of control
dose: 200.0 mg/kg/injection, schedule: Q01DX001 (ip), vehicle: alcohol
  T/C: 97 % of control
dose: 400.0 mg/kg/injection, schedule: Q01DX001 (ip), vehicle: alcohol
  T/C: 108 % of control

## CCCCCCCC(=O)OOC(C)(C)C
[7]
  T/C: 105 % of control
[8]
  T/C: 105 % of control
[9]
  T/C: 108 % of control

## CCCCCCCCCCCC(=O)NC1CCS(=O)(=O)C1 (stereo not given)
dose: 37.5 mg/kg/injection, schedule: Q01DX009 (ip), vehicle: Klucel (hydroxypropylcellulose) (HPC)
  T/C: 99 % of control
dose: 75.0 mg/kg/injection, schedule: Q01DX009 (ip), vehicle: Klucel (hydroxypropylcellulose) (HPC)
  T/C: 96 % of control
dose: 150.0 mg/kg/injection, schedule: Q01DX009 (ip), vehicle: Klucel (hydroxypropylcellulose) (HPC)
  T/C: 97 % of control
dose: 300.0 mg/kg/injection, schedule: Q01DX009 (ip), vehicle: Klucel (hydroxypropylcellulose) (HPC)
  T/C: 95 % of control

## OCC1OC(n2cnc3c(Br)ncnc32)C(O)C1O (stereo not given)
[10]
  T/C: 91 % of control
[11]
  T/C: 98 % of control
[12]
  T/C: 91 % of control

## CCOC(=O)CCC(CNC(=O)c1ccccc1)NC(=O)c1ccccc1 (stereo not given)
[7]
  T/C: 98 % of control
[8]
  T/C: 90 % of control
[9]
  T/C: 88 % of control

## O=C(CN1CCCCC1)Nc1nc(-c2ccc(Cl)cc2)cs1
dose: 6.25 mg/kg/injection, schedule: Q01DX005 (ip), vehicle: saline with Tween-80
  T/C: 100 % of control
dose: 12.5 mg/kg/injection, schedule: Q01DX005 (ip), vehicle: saline with Tween-80
  T/C: 94 % of control
dose: 25.0 mg/kg/injection, schedule: Q01DX005 (ip), vehicle: saline with Tween-80
  T/C: 89 % of control

## CC(=O)C1CCC=CC1Sc1ccccc1 (stereo not given)
[13]
  T/C: 103 % of control
dose: 100.0 mg/kg/injection, schedule: Q01DX001 (ip), vehicle: saline
  T/C: 93 % of control
[14]
  T/C: 96 % of control
dose: 200.0 mg/kg/injection, schedule: Q01DX001 (ip), vehicle: saline
  T/C: 101 % of control
[15]
  T/C: 121 % of control
dose: 400.0 mg/kg/injection, schedule: Q01DX001 (ip), vehicle: saline
  T/C: 98 % of control

## C[CH2][Sn]1([CH2]C)[O]OC(c2ccccc2)[O]1 (stereo not given)
dose: 1.56 mg/kg/injection, schedule: Q01DX009 (ip), vehicle: saline with Tween-80
  T/C: 155 % of control
[16]
  T/C: 173 % of control

## COc1ccc2c(c1O)-c1cc(O)cc3c1C(C2)NCC3 (stereo not given)
dose: 0.32 mg/kg/injection, schedule: Q04DX003 (ip), vehicle: DMSO
  T/C: 98 % of control
dose: 0.63 mg/kg/injection, schedule: Q04DX003 (ip), vehicle: DMSO
  T/C: 95 % of control
dose: 1.25 mg/kg/injection, schedule: Q04DX003 (ip), vehicle: DMSO
  T/C: 99 % of control
dose: 2.5 mg/kg/injection, schedule: Q04DX003 (ip), vehicle: DMSO
  T/C: 98 % of control
dose: 5.0 mg/kg/injection, schedule: Q04DX003 (ip), vehicle: DMSO
  T/C: 100 % of control

## O=S(=O)(OCCCl)c1cc(Cl)c(Cl)cc1Cl
[17]
  T/C: 105 % of control
[18]
  T/C: 114 % of control
[19]
  T/C: 90 % of control

## O=C(NN=C1c2ccccc2-c2ccccc21)Nc1ccccc1
[2]
  T/C: 95 % of control
[3]
  T/C: 96 % of control
[5]
  T/C: 96 % of control

## CCOc1cccc(/C=N/NC(=O)C(=O)Nc2cccc(C(F)(F)F)c2)c1O
dose: 12.5 mg/kg/injection, schedule: Q01DX005 (ip), vehicle: Klucel (hydroxypropylcellulose) (HPC)
  T/C: 98 % of control
[20]
  T/C: 95 % of control
[17]
  T/C: 89 % of control and 90 % of control

## COc1ccc2c(c1)CSC(c1ccccc1)=C2
[2]
  T/C: 100 % of control
[3]
  T/C: 93 % of control
[5]
  T/C: 94 % of control
[6]
  T/C: 92 % of control

## N#CCCSC(=S)C(C#N)C(=N)c1ccccc1 (stereo not given)
dose: 25.0 mg/kg/injection, schedule: Q04DX003 (ip), vehicle: Klucel (hydroxypropylcellulose) (HPC)
  T/C: 108 % of control
dose: 50.0 mg/kg/injection, schedule: Q04DX003 (ip), vehicle: Klucel (hydroxypropylcellulose) (HPC)
  T/C: 110 % of control
dose: 100.0 mg/kg/injection, schedule: Q04DX003 (ip), vehicle: Klucel (hydroxypropylcellulose) (HPC)
  T/C: 104 % of control and 92 % of control
dose: 200.0 mg/kg/injection, schedule: Q04DX003 (ip), vehicle: Klucel (hydroxypropylcellulose) (HPC)
  T/C: 92 % of control
dose: 400.0 mg/kg/injection, schedule: Q04DX003 (ip), vehicle: Klucel (hydroxypropylcellulose) (HPC)
  T/C: 96 % of control

## Nc1cccc(-c2nn[nH]n2)c1
[10]
  T/C: 98 % of control
[11]
  T/C: 102 % of control
[12]
  T/C: 88 % of control

## Clc1cccc2nc(-c3ccccn3)n(CCc3ccncc3)c12
[20]
  T/C: 95 % of control
[17]
  T/C: 95 % of control
[18]
  T/C: 95 % of control
[19]
  T/C: 93 % of control

## O=C1/C(=C/c2ccc(F)cc2)SC(=S)N1c1ccc(Cl)c(Cl)c1
[4]
  T/C: 91 % of control and 95 % of control
dose: 50.0 mg/kg/injection, schedule: Q01DX009 (ip), vehicle: saline
  T/C: 104 % of control and 91 % of control and 94 % of control
dose: 100.0 mg/kg/injection, schedule: Q01DX009 (ip), vehicle: saline
  T/C: 100 % of control and 94 % of control
dose: 200.0 mg/kg/injection, schedule: Q01DX009 (ip), vehicle: saline
  T/C: 108 % of control and 124 % of control and 91 % of control

## COc1ccc(C(=NCCc2ccccc2)c2ccccc2)c(O)c1
dose: 100.0 mg/kg/injection, schedule: Q04DX002 (ip), vehicle: saline with Tween-80
  T/C: 100 % of control
dose: 200.0 mg/kg/injection, schedule: Q04DX002 (ip), vehicle: saline with Tween-80
  T/C: 98 % of control
dose: 400.0 mg/kg/injection, schedule: Q04DX002 (ip), vehicle: saline with Tween-80
  T/C: 100 % of control

## COC(=O)N1CC2C=CC1C(Cl)(C#N)C2 (stereo not given)
[13]
  T/C: 101 % of control
[14]
  T/C: 90 % of control
[15]
  T/C: 106 % of control

## N#C/C(=C\c1ccco1)C(=O)c1ccco1
[16]
  T/C: 112 % of control
[1]
  T/C: 95 % of control
[2]
  T/C: 89 % of control and 97 % of control

## CC(C)N(Cc1ccccc1)S(=O)(=O)c1n[nH]c(C(C)(C)C)n1
[10]
  T/C: 94 % of control
[11]
  T/C: 86 % of control
